We go through eleven molecules from patent US10364238B2, “N-((het) arylmethyl)-heteroaryl-carboxamides compounds as plasma kallikrein inhibitors” (KALVISTA PHARMACEUTICALS LIMITED, priority 2014, dated 2019).

The target of one data set is Human plasma kallikrein (Homo sapiens (Human), UniProt P03952). Nature of the data set: Determination of the IC50 for plasma kallikrein. The note with it: 25° C., fluorogenic substrate H-DPro-Phe-Arg-AFC; read-out: IC50 (human PKaI). It is filed as biochemical. The protocol: Determination of the IC50 for Plasma Kallikrein
Chain of Human plasma kallikrein (P03952 391-638): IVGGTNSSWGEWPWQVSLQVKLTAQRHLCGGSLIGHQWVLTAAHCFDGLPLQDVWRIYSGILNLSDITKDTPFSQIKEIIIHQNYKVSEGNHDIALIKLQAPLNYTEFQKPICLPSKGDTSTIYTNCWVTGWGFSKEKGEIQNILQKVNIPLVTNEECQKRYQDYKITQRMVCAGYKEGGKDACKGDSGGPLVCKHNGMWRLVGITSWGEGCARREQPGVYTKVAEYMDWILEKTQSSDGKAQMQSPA
Chain of Human plasma kallikrein (P03952 20-390 partner): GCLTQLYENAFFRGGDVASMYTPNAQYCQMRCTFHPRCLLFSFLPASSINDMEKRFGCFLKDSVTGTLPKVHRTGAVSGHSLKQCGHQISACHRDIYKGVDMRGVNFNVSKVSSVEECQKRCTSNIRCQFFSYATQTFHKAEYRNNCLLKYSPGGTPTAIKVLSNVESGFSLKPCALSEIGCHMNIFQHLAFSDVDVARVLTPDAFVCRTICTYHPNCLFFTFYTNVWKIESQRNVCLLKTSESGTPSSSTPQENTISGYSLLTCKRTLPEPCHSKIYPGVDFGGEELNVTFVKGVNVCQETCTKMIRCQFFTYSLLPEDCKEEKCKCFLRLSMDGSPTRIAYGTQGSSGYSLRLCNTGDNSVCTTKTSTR
Human plasma kallikrein (Protogen) was incubated at 25° C. with the fluorogenic substrate H-DPro-Phe-Arg-AFC and various concentrations of the test compound. Residual enzyme activity (initial rate of reaction) was determined by measuring the change in […] at 410 nm and the IC50 value for the test compound was determined.

For the next data set, the target named is Human KLK1 (Homo sapiens (Human), UniProt P06870). Description: Determination of the IC50 for KLK1. It is filed as biochemical. As to conditions: 25° C., fluorogenic substrate H-DVal-Leu-Arg-AFC. The protocol:
Determination of the IC50 for KLK1
Human KLK1 (Callbiochem) was incubated at 25° C. with the fluorogenic substrate H-DVal-Leu-Arg-AFC and various concentrations of the test compound. Residual enzyme activity (initial rate of reaction) was determined by measuring the change in […] at 410 nm and the IC50 value for the test compound was determined.

For a further data set, the target named is Human FXIa (Homo sapiens (Human), UniProt P03951). Description: Determination of the % inhibition for FXIa. It is filed as biochemical. The note with it: 40 μM test compound, 25° C., substrate Z-Gly-Pro-Arg-AFC. The protocol: Determination of the % Inhibition for FXIa
Chain of Human FXIa (P03951 388-625): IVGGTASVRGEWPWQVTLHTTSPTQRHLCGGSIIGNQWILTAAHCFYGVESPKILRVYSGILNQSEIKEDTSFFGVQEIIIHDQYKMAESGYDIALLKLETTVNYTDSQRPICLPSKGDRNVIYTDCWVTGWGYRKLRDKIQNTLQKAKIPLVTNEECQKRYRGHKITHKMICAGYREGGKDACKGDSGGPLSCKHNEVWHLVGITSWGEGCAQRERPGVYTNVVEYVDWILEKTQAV
Chain of Human FXIa (P03951 19-387 partner): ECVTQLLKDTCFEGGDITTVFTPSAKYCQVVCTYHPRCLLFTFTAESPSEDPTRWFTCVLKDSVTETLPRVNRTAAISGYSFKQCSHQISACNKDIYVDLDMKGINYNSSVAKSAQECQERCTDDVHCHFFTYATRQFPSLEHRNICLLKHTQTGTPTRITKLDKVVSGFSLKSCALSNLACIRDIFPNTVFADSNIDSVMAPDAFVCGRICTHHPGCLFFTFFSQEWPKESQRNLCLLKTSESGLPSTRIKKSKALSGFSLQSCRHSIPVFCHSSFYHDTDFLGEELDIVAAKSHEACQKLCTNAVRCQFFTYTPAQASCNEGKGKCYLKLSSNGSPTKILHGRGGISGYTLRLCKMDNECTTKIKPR
Human FXIa (Enzyme Research Laboratories) was incubated at 25° C. with the fluorogenic substrate Z-Gly-Pro-Arg-AFC and 40 μM of the test compound. Residual enzyme activity (initial rate of reaction) was determined by measuring the change in […].

The nature of data set [1]: Pharmacokinetics following a single oral dose in rats. It is filed as in vivo. As to conditions: rat, nominal 10 mg/kg, male Sprague-Dawley rats, plasma. The protocol:
Pharmacokinetic studies of the compounds in Table 15 were performed to assess the pharmacokinetics following a single oral dose in male Sprague-Dawley rats. Two rats were given a single po dose of 5 mL/kg of a nominal 2 mg/mL (10 mg/kg) composition of test compound in vehicle. Following dosing, blood samples were collected over a period of 24 hours. Sample times were 5, 15 and 30 minutes then 1, 2, 4, 6, 8 and 12 hours. Following collection, blood samples were centrifuged and the plasma fraction analysed for concentration of test compound by LCMS.

In the next data set the test system is diabetic rats. As to conditions: cited from earlier work.
For data set [2] the following is noted: in vivo; cited from earlier work.

For orientation: IC50 means the point on the concentration scale where inhibition reaches its midpoint. By inhibition is commonly meant the percentage by which the read-out fell short of the control. Read a high inhibition as strong suppression. In general, Cmax refers to the peak of the concentration-time curve. In general, Tmax refers to the time from dosing to the highest level.

Chain of Human KLK1 (P06870 25-262): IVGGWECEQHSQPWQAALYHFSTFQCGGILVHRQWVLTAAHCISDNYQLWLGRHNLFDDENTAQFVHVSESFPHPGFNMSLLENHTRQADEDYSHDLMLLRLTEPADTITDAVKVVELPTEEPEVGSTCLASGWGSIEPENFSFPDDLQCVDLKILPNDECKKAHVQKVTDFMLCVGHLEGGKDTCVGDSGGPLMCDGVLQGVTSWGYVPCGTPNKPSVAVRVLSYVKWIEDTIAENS

Turning to `COc1cccc(CNC(=O)c2cn(Cc3ccc(Cn4ccccc4=O)cc3)nc2N)c1F` [Example 2, 3-Amino-1-[4-(2-oxo-2H-pyridin-1-ylmethyl)-benzyl]-1H-pyrazole-4-carboxylic acid 2-fluoro-3-methoxy-benzylamide], the IC50 on Human plasma kallikrein came out at 8.7 nM. In addition, the half-inhibitory concentration (IC50) against Human KLK1 was greater than 10000 nM. Also, the inhibition at 40 µM on Human FXIa came out at 8%. Besides, in data set [1], the highest concentration (Cmax) was 351 ng/mL and the time of peak concentration (Tmax) is 60 min.
Molecule `COCc1nn(Cc2ccc(Cn3ccccc3=O)cc2)cc1C(=O)NCc1nccc(OC)c1F` [Example 41, N-[(3-fluoro-4-methoxypyridin-2-yl)methyl]-3-(methoxymethyl)-1-({4-[(2-oxopyridin-1-yl)methyl]phenyl}methyl)pyrazole-4-carboxamide] showed a half-maximal inhibitory concentration (IC50) against Human KLK1 greater than 40000 nM. In addition, the inhibition at 40 µM against Human FXIa came to 0%. Also, in data set [1], the Cmax turned out to be 1530 ng/mL and the Tmax is 180 min.
With `COCc1nn(Cc2ccc(Cn3ccccc3=O)cc2)cc1C(=O)NCc1cc(OC)ccc1C(F)F` [Example 81, N-{[2-(difluoromethyl)-5-methoxyphenyl]methyl}-3-(methoxymethyl)-1-({4-[(2-oxopyridin-1-yl)methyl]phenyl}methyl)pyrazole-4-carboxamide], the IC50 was 2.3 nM at Human plasma kallikrein and greater than 40000 nM against Human KLK1. At Human FXIa, this molecule displayed an inhibition at 40 µM of 1%.
On to `COCc1nn(Cc2ccc(Cn3ccccc3=O)cc2)cc1C(=O)NCc1c(F)cccc1C(N)=O` [Example 85, N-[(2-carbamoyl-6-fluorophenyl)methyl]-3-(methoxymethyl)-1-({4-[(2-oxopyridin-1-yl)methyl]phenyl}methyl)pyrazole-4-carboxamide], for which the half-inhibitory concentration (IC50) was 79.2 nM at Human plasma kallikrein and greater than 40000 nM against Human KLK1. Further, on Human FXIa, 40 µM produced 46% inhibition.
Take `CCOc1ccn(Cc2ccc(Cn3cc(C(=O)NCc4c(F)ccc(OC)c4F)c(COC)n3)cc2)c(=O)c1` [Example 109, N-[(2,6-difluoro-3-methoxyphenyl)methyl]-1-({4-[(4-ethoxy-2-oxopyridin-1-yl)methyl]phenyl}methyl)-3-(methoxymethyl)pyrazole-4-carboxamide]: the 50% inhibitory concentration (IC50) at Human plasma kallikrein was 2980 nM; at Human KLK1, greater than 10000 nM. The same molecule came in with an inhibition at 40 µM at Human FXIa of 2%.
With `N=C(N)c1ccc(CNC(=O)c2cnn(Cc3ccccc3)c2)cc1` [ASP-440], the “effect on retinal vascular permeability and retinal blood flow abnormalities” value in the data set on diabetic rats is “ameliorated both retinal vascular permeability and retinal blood flow abnormalities”. For the same molecule, the oral availability result in data set [2] is listed as “poor oral availability”.
Regarding `COCc1nn(Cc2ccc(Cn3ccccc3=O)cc2)cc1C(=O)NCc1c(F)ccc(OC)c1F` [Example 66, N-[(2,6-difluoro-3-methoxyphenyl)methyl]-3-(methoxymethyl)-1-({4-[(2-oxopyridin-1-yl)methyl]phenyl}methyl)pyrazole-4-carboxamide], the half-maximal inhibitory concentration (IC50) at Human plasma kallikrein turned out to be 4.6 nM. At Human KLK1, the IC50 was greater than 10000 nM. Moreover, the inhibition at 40 µM against Human FXIa came to 4%. In data set [1], the peak concentration (Cmax) came out at 2890 ng/mL and the Tmax was 60 min.
Regarding `CN1CC(CNC(=O)c2cn(Cc3ccc(Cn4ccccc4=O)cc3)nc2N)Oc2cc(Cl)ccc21` (stereo not shown) [Example 139, 3-amino-N-[(7-chloro-4-methyl-2,3-dihydro-1,4-benzoxazin-2-yl)methyl]-1-({4-[(2-oxopyridin-1-yl)methyl]phenyl}methyl)pyrazole-4-carboxamide], the half-inhibitory concentration (IC50) at Human plasma kallikrein is 64.7 nM; against Human KLK1, greater than 40000 nM. Moreover, 40 µM produced 33% inhibition against Human FXIa.
As for `O=C(NCc1c(F)cccc1C(F)(F)F)c1cn(Cc2ccc(Cn3ccccc3=O)cc2)nc1C(F)(F)F` [Example 51, N-{[2-fluoro-6-(trifluoromethyl)phenyl]methyl}-1-({4-[(2-oxopyridin-1-yl)methyl]phenyl}methyl)-3-(trifluoromethyl)pyrazole-4-carboxamide], at Human plasma kallikrein, the IC50 amounted to 48.9 nM. This molecule also registered an IC50 against Human KLK1 greater than 40000 nM. In addition, in data set [1], the Cmax amounted to 101 ng/mL and the time of peak concentration (Tmax) is 15 min.
`COCc1nn(Cc2ccc(Cn3ccccc3=O)cc2)cc1C(=O)NCc1cccc(OC)c1F` [Example 53, N-[(2-fluoro-3-methoxyphenyl)methyl]-3-(methoxymethyl)-1-({4-[(2-oxopyridin-1-yl)methyl]phenyl}methyl)pyrazole-4-carboxamide]: the concentration for half-maximal inhibition (IC50) on Human plasma kallikrein came out at 20.2 nM. Besides, the IC50 at Human KLK1 was greater than 10000 nM. Moreover, in data set [1], the highest concentration (Cmax) was found to be 1030 ng/mL and the Tmax is 15 min.
Regarding `COCc1nn(Cc2ccc(Cn3ccccc3=O)cc2)cc1C(=O)NCc1c(C#N)ccc(OC)c1F` [Example 77, N-[(6-cyano-2-fluoro-3-methoxyphenyl)methyl]-3-(methoxymethyl)-1-({4-[(2-oxopyridin-1-yl)methyl]phenyl}methyl)pyrazole-4-carboxamide], the IC50 at Human plasma kallikrein worked out at 0.6 nM. Moreover, at Human FXIa, testing at 40 µM gave an inhibition of 28%. In addition, in data set [1], the maximum concentration (Cmax) came out at 397 ng/mL and the time of peak concentration (Tmax) was 30 min.
